Experimental data taken from ChEMBL document CHEMBL5724914, “Linking interpersonal differences in gut microbiota composition and drug biotransformation activity” (2024).

Tests used:
[1] = (§1) The drug is tested on Z-030 corresponding to mouse gut metagenome with ENA study accession number: PRJEB37062 and ENA sample accession number: ERS12561829 for biotransformation under anaerobic condition. The drug concentrations were measured over 9 timepoints collected between 0 and 24 hours of incubation by liquid-chromatography-coupled mass spectrometry (LC–MS); conditions: 2 µM
[2] = as §1, with “Z-026” for “Z-030”, “to” for “to mouse gut”, “ERS12561825” for “ERS12561829”; conditions: 2 µM
[3] = as §1, with “Z-014” for “Z-030”, “rat” for “mouse”, “ERS12561814” for “ERS12561829”; conditions: 2 µM
[4] = as §1, with “Z-001” for “Z-030”, “ERS12561801” for “ERS12561829”; conditions: 2 µM
[5] = as §1, with “WLS-370” for “Z-030”, “human” for “mouse”, “ERS12561793” for “ERS12561829”; conditions: 2 µM
[6] = as §1, with “WLS-310” for “Z-030”, “human” for “mouse”, “ERS12561785” for “ERS12561829”; conditions: 2 µM
[7] = as §1, with “WLS-077” for “Z-030”, “human” for “mouse”, “ERS12561750” for “ERS12561829”; conditions: 2 µM
[8] = as §1, with “WLS-073” for “Z-030”, “human” for “mouse”, “ERS12561749” for “ERS12561829”; conditions: 2 µM
[9] = as §1, with “WLS-052” for “Z-030”, “human” for “mouse”, “ERS12561747” for “ERS12561829”; conditions: 2 µM
[10] = human gut metagenome, 24 h, 2 µM
[11] = human gut metagenome, 24 h, 2 µM; remark: listed apart in the source
[12] = human gut metagenome, 24 h, 2 µM; remark: listed apart in the source
[13] = human gut metagenome, 24 h, 2 µM; remark: listed apart in the source
[14] = human gut metagenome, 24 h, 2 µM; remark: listed apart in the source
[15] = human gut metagenome, 24 h, 2 µM; remark: listed apart in the source
[16] = human gut metagenome, 24 h, 2 µM; remark: listed apart in the source
[17] = human gut metagenome, 24 h, 2 µM; remark: listed apart in the source
[18] = human gut metagenome, 24 h, 2 µM; remark: listed apart in the source
[19] = human gut metagenome, 24 h, 2 µM; remark: listed apart in the source
[20] = human gut metagenome, 24 h, 2 µM; remark: listed apart in the source
Also: call rule not given here.

| Structure (SMILES) | Bacterial Biotransformation [1] | Bacterial Biotransformation [2] | Bacterial Biotransformation [3] | Bacterial Biotransformation [4] | Bacterial Biotransformation [5] | Bacterial Biotransformation [6] | Bacterial Biotransformation [7] | Bacterial Biotransformation [8] | Bacterial Biotransformation [9] | Bacterial Biotransformation [10] | Bacterial Biotransformation [11] | Bacterial Biotransformation [12] | Bacterial Biotransformation [13] | Bacterial Biotransformation [14] | Bacterial Biotransformation [15] | Bacterial Biotransformation [16] | Bacterial Biotransformation [17] | Bacterial Biotransformation [18] | Bacterial Biotransformation [19] | Bacterial Biotransformation [20] |
| --- | --- | --- | --- | --- | --- | --- | --- | --- | --- | --- | --- | --- | --- | --- | --- | --- | --- | --- | --- | --- |
| CN1CCOC(c2ccccc2)c2ccccc2C1 (stereo not given) [NEFOPAM] | Compound NOT metabolized | Compound NOT metabolized | Compound NOT metabolized | Compound NOT metabolized | Compound metabolized | Compound NOT metabolized | Compound NOT metabolized | Compound NOT metabolized | Compound NOT metabolized | Compound NOT metabolized | Compound metabolized | Compound metabolized | Compound metabolized | Compound NOT metabolized | Compound NOT metabolized | Compound metabolized | Compound NOT metabolized | Compound NOT metabolized | Compound NOT metabolized | Compound NOT metabolized |
| Cc1ccnc2c1NC(=O)c1cccnc1N2C1CC1 [NEVIRAPINE] | Compound NOT metabolized | Compound NOT metabolized | Compound NOT metabolized | Compound NOT metabolized | Compound metabolized | Compound metabolized | Compound NOT metabolized | Compound NOT metabolized | Compound NOT metabolized | Compound NOT metabolized | Compound NOT metabolized | Compound metabolized | Compound metabolized | Compound metabolized | Compound metabolized | Compound metabolized | Compound NOT metabolized | Compound NOT metabolized | Compound NOT metabolized | Compound NOT metabolized |
| COc1ccc2c(c1OC)C(=O)O[C@@H]2[C@H]1c2c(cc3c(c2OC)OCO3)CCN1C [NOSCAPINE] | Compound NOT metabolized | Compound NOT metabolized | Compound metabolized | Compound metabolized | Compound NOT metabolized | Compound metabolized | Compound metabolized | Compound metabolized | Compound NOT metabolized | Compound NOT metabolized | Compound metabolized | Compound NOT metabolized | Compound NOT metabolized | Compound metabolized | Compound NOT metabolized | Compound metabolized | Compound metabolized | Compound NOT metabolized | Compound metabolized | Compound NOT metabolized |
| CCCc1nc(C(C)(C)O)c(C(=O)OCc2oc(=O)oc2C)n1Cc1ccc(-c2ccccc2-c2nnn[nH]2)cc1 [OLMESARTAN MEDOXOMIL] | Compound NOT metabolized | Compound NOT metabolized | Compound NOT metabolized | Compound metabolized | Compound metabolized | Compound metabolized | Compound metabolized | Compound metabolized | Compound metabolized | Compound metabolized | Compound NOT metabolized | Compound metabolized | Compound metabolized | Compound metabolized | Compound metabolized | Compound NOT metabolized | Compound metabolized | Compound NOT metabolized | Compound metabolized | Compound metabolized |
| NC(=O)N1c2ccccc2CC(=O)c2ccccc21 [OXCARBAZEPINE] | Compound NOT metabolized | Compound NOT metabolized | Compound NOT metabolized | Compound NOT metabolized | Compound metabolized | Compound NOT metabolized | Compound NOT metabolized | Compound NOT metabolized | Compound NOT metabolized | Compound metabolized | Compound metabolized | Compound NOT metabolized | Compound NOT metabolized | Compound NOT metabolized | Compound NOT metabolized | Compound NOT metabolized | Compound NOT metabolized | Compound NOT metabolized | Compound NOT metabolized | Compound NOT metabolized |
| CCN(CC)CC#CCOC(=O)C(O)(c1ccccc1)C1CCCCC1.Cl (stereo not given) [OXYBUTYNIN CHLORIDE] | Compound NOT metabolized | Compound NOT metabolized | Compound NOT metabolized | Compound metabolized | Compound metabolized | Compound metabolized | Compound metabolized | Compound NOT metabolized | Compound metabolized | Compound metabolized | Compound metabolized | Compound metabolized | Compound metabolized | Compound metabolized | Compound NOT metabolized | Compound metabolized | Compound metabolized | Compound metabolized | Compound metabolized | Compound metabolized |
| Fc1ccc([C@@H]2CCNC[C@H]2COc2ccc3c(c2)OCO3)cc1 [PAROXETINE] | Compound NOT metabolized | Compound NOT metabolized | Compound NOT metabolized | Compound NOT metabolized | Compound metabolized | Compound metabolized | Compound NOT metabolized | Compound NOT metabolized | Compound NOT metabolized | Compound metabolized | Compound NOT metabolized | Compound metabolized | Compound metabolized | Compound metabolized | Compound NOT metabolized | Compound metabolized | Compound NOT metabolized | Compound NOT metabolized | Compound metabolized | Compound metabolized |
| O=c1[nH]c2ccccc2n1C1CCN(CCCC(c2ccc(F)cc2)c2ccc(F)cc2)CC1 [PIMOZIDE] | Compound NOT metabolized | Compound NOT metabolized | Compound NOT metabolized | Compound metabolized | Compound metabolized | Compound metabolized | Compound NOT metabolized | Compound metabolized | Compound metabolized | Compound NOT metabolized | Compound metabolized | Compound metabolized | Compound metabolized | Compound metabolized | Compound NOT metabolized | Compound metabolized | Compound NOT metabolized | Compound NOT metabolized | Compound NOT metabolized | Compound metabolized |
